Data reported in patent US6440999B1, “Intimal thickening inhibitory agent” (Chugai Seiyaku Kabushiki Kaisha, priority 1995, dated 2002).

Tested on: A7r5 cells derived from the aorta of a rat
Test: Inhibition of serum-stimulated proliferation of vascular smooth muscle cells, acid phosphatase activity
Format: cell-based
Conditions: 48 hours after 2% FBS stimulation, n = 3, mean ± SD; for Acid Phosphatase Activity Absorbance (OD405): control 0.867 ± 0.089
Description: In order to assess the inhibitory effect of the compounds of the present invention on serum-stimulated proliferation of vascular smooth muscle cells in vitro, the compounds of Examples 1, 4, 20, 22, 27, 31, 36, 50, 52, and 58 were tested using A7r5 cells derived from the aorta of a rat (ATCC-CRL-1444).
Using DMEM medium containing 10% FBS, the cells were placed on 96-well microtiter plates with 5×10^3 cells/0.2 ml/ well and then incubated. The medium was exchanged for 2% FBS-containing DMEM medium on the third day and then for 0.2% FBS-containing DMEM medium on the fourth day from the start of the incubation. After 24-hour incubation in the 0.2% FBS-containing DMEM medium, the test compound was added. Each of the test compounds were added to the wells in the form of a solution or suspension in ethanol in an amount of 1 μl/well to final compound concentrations indicated in Table 3 below and the resultant ethanol concentration of 0.5% in each well. After additional 24-hour incubation, the medium was removed, and 0.2 ml of DMEM medium and the test compound were added thereto again, and the cells were stimulated by serum (2% FBS). Forty-eight hours after the stimulation, the acid phosphatase activity in the wells was measured by means of a kit (Abacus Cell Proliferation Kit, available from Clontech Lab. Inc. CA, U.S.A.) and evaluated as an indication of cell proliferation.

## CCCCCC1(CCCCC)Cc2c(cc(C(C)(C)C)c(O)c2C(C)(C)C)O1 [Example 36, 4,6-Di-t-butyl-2,2-di-n-pentyl-5-hydroxy-2,3-dihydrobenzofuran]
10 μM
  Acid Phosphatase Activity Absorbance (OD405): 0.733 ± 0.060
100 μM
  Acid Phosphatase Activity Absorbance (OD405): 0.539 ± 0.055
Rattus norvegicus, A7R5, 10 μM, control 100 ± 10
  activity at 10 µM: 84 ± 7%
Rattus norvegicus, A7R5, 100 μM, control 100 ± 10
  activity at 100 µM: 62 ± 6%
